{"source": "patent US20120108811A1", "about": "“PROCESS FOR PREPARING TEMOZOLOMIDE” (FORMOSA LABORATORIES INC., priority 2010, published 2012)", "assay_type_in_all_cases": "physicochemical", "key": {"[1]": {"test": "Long-term stability of Temozolomide prepared by conventional method, 2-8° C.", "settings": "for AICA NMT 0.15% / Appearance (White to off-white powder) / Assay (HPLC) (98.0-102.0%) / Individual unknown impurity NMT 0.10% / Purity (HPLC) NLT 99.0% / Total impurities NMT 1.00% / Water content (KF), NMT 1.00%: conventional method, 2-8° C.", "procedure": "The Temozolomide was stable at temperature 2-8° C."}, "[2]": {"test": "Accelerated stability of Temozolomide prepared by conventional method, 25° C. ± 2° C., 60% ± 5% RH", "settings": "for AICA NMT 0.15% / Appearance (White to off-white powder) / Assay (HPLC) (98.0-102.0%) / Individual unknown impurity NMT 0.10% / Purity (HPLC) NLT 99.0% / Total impurities NMT 1.00% / Water content (KF), NMT 1.00%: conventional method, 25° C. ± 2° C., RH 60% ± 5%"}, "[3]": {"test": "Long-term stability of Temozolomide prepared by the process of the present invention, 2-8° C.", "procedure": "The Temozolomide was stable at temperature 2-8° C. for at least 18 months."}, "[4]": {"settings": "process of the present invention, 2-8° C., 0 time"}, "[5]": {"settings": "process of the present invention, 2-8° C., 1 month"}}}
{"molecule": "Cn1nnc2c(C(N)=O)ncn2c1=O", "note": "[Temozolomide, 8-carbamoyl-3-methyl-imidazo[5,1-d]-1,2,3,5-tetrazin-4(3H)-one]", "values": [{"measurement": "AICA NMT 0.15%", "setting": "[1]; 0 time", "result": 0.06, "unit": "%"}, {"measurement": "Appearance (White to off-white powder)", "setting": "[1]; 0 time", "result": "White"}, {"measurement": "Assay (HPLC) (98.0-102.0%)", "setting": "[1]; 0 time", "result": 101.7, "unit": "%"}, {"measurement": "Individual unknown impurity NMT 0.10%", "setting": "[1]; 0 time", "result": 0.01, "unit": "%"}, {"measurement": "Purity (HPLC) NLT 99.0%", "setting": "[1]; 0 time", "result": 99.9, "unit": "%"}, {"measurement": "Total impurities NMT 1.00%", "setting": "[1]; 0 time", "result": 0.08, "unit": "%"}, {"measurement": "Water content (KF), NMT 1.00%", "setting": "[1]; 0 time", "result": 0.17, "unit": "%"}, {"measurement": "AICA NMT 0.15%", "setting": "[1]; 1 month", "result": 0.02, "unit": "%"}, {"measurement": "Appearance (White to off-white powder)", "setting": "[1]; 1 month", "result": "White"}, {"measurement": "Assay (HPLC) (98.0-102.0%)", "setting": "[1]; 1 month", "result": 101.4, "unit": "%"}, {"measurement": "Individual unknown impurity NMT 0.10%", "setting": "[1]; 1 month", "result": 0.02, "unit": "%"}, {"measurement": "Purity (HPLC) NLT 99.0%", "setting": "[1]; 1 month", "result": 100.0, "unit": "%"}, {"measurement": "Total impurities NMT 1.00%", "setting": "[1]; 1 month", "result": 0.03, "unit": "%"}, {"measurement": "Water content (KF), NMT 1.00%", "setting": "[1]; 1 month", "result": 0.36, "unit": "%"}, {"measurement": "AICA NMT 0.15%", "setting": "[1]; 2 months", "result": 0.04, "unit": "%"}, {"measurement": "Appearance (White to off-white powder)", "setting": "[1]; 2 months", "result": "White"}, {"measurement": "Assay (HPLC) (98.0-102.0%)", "setting": "[1]; 2 months", "result": 99.8, "unit": "%"}, {"measurement": "Individual unknown impurity NMT 0.10%", "setting": "[1]; 2 months", "result": 0.01, "unit": "%"}, {"measurement": "Purity (HPLC) NLT 99.0%", "setting": "[1]; 2 months", "result": 99.9, "unit": "%"}, {"measurement": "Total impurities NMT 1.00%", "setting": "[1]; 2 months", "result": 0.06, "unit": "%"}, {"measurement": "Water content (KF), NMT 1.00%", "setting": "[1]; 2 months", "result": 0.20, "unit": "%"}, {"measurement": "AICA NMT 0.15%", "setting": "[1]; 3 months", "result": 0.01, "unit": "%"}, {"measurement": "Appearance (White to off-white powder)", "setting": "[1]; 3 months", "result": "Light beige"}, {"measurement": "Assay (HPLC) (98.0-102.0%)", "setting": "[1]; 3 months", "result": 99.6, "unit": "%"}, {"measurement": "Individual unknown impurity NMT 0.10%", "setting": "[1]; 3 months", "result": 0.01, "unit": "%"}, {"measurement": "Purity (HPLC) NLT 99.0%", "setting": "[1]; 3 months", "result": 100.0, "unit": "%"}, {"measurement": "Total impurities NMT 1.00%", "setting": "[1]; 3 months", "result": 0.03, "unit": "%"}, {"measurement": "Water content (KF), NMT 1.00%", "setting": "[1]; 3 months", "result": 0.14, "unit": "%"}, {"measurement": "AICA NMT 0.15%", "setting": "[1]; 6 months", "result": 0.01, "unit": "%"}, {"measurement": "Appearance (White to off-white powder)", "setting": "[1]; 6 months", "result": "Light beige"}, {"measurement": "Assay (HPLC) (98.0-102.0%)", "setting": "[1]; 6 months", "result": 99.7, "unit": "%"}, {"measurement": "Individual unknown impurity NMT 0.10%", "setting": "[1]; 6 months", "result": 0.01, "unit": "%"}, {"measurement": "Purity (HPLC) NLT 99.0%", "setting": "[1]; 6 months", "result": 99.9, "unit": "%"}, {"measurement": "Total impurities NMT 1.00%", "setting": "[1]; 6 months", "result": 0.05, "unit": "%"}, {"measurement": "Water content (KF), NMT 1.00%", "setting": "[1]; 6 months", "result": 0.34, "unit": "%"}, {"measurement": "AICA NMT 0.15%", "setting": "[1]; 9 months", "result": 0.04, "unit": "%"}, {"measurement": "Appearance (White to off-white powder)", "setting": "[1]; 9 months", "result": "Light beige"}, {"measurement": "Assay (HPLC) (98.0-102.0%)", "setting": "[1]; 9 months", "result": 98.5, "unit": "%"}, {"measurement": "Individual unknown impurity NMT 0.10%", "setting": "[1]; 9 months", "result": 0.01, "unit": "%"}, {"measurement": "Purity (HPLC) NLT 99.0%", "setting": "[1]; 9 months", "result": 99.9, "unit": "%"}, {"measurement": "Total impurities NMT 1.00%", "setting": "[1]; 9 months", "result": 0.05, "unit": "%"}, {"measurement": "Water content (KF), NMT 1.00%", "setting": "[1]; 9 months", "result": 0.21, "unit": "%"}, {"measurement": "AICA NMT 0.15%", "setting": "[1]; 12 months", "result": 0.06, "unit": "%"}, {"measurement": "Appearance (White to off-white powder)", "setting": "[1]; 12 months", "result": "Light beige"}, {"measurement": "Assay (HPLC) (98.0-102.0%)", "setting": "[1]; 12 months", "result": 99.2, "unit": "%"}, {"measurement": "Individual unknown impurity NMT 0.10%", "setting": "[1]; 12 months", "result": 0.02, "unit": "%"}, {"measurement": "Purity (HPLC) NLT 99.0%", "setting": "[1]; 12 months", "result": 99.8, "unit": "%"}, {"measurement": "Total impurities NMT 1.00%", "setting": "[1]; 12 months", "result": 0.09, "unit": "%"}, {"measurement": "Water content (KF), NMT 1.00%", "setting": "[1]; 12 months", "result": 0.11, "unit": "%"}, {"measurement": "Long-term stability (in words)", "setting": "[1]; prepared by conventional method, temperature 2-8° C.", "result": "stable"}, {"measurement": "AICA NMT 0.15%", "setting": "[2]; 0 time", "result": 0.06, "unit": "%"}, {"measurement": "Appearance (White to off-white powder)", "setting": "[2]; 0 time", "result": "White"}, {"measurement": "Assay (HPLC) (98.0-102.0%)", "setting": "[2]; 0 time", "result": 101.7, "unit": "%"}, {"measurement": "Individual unknown impurity NMT 0.10%", "setting": "[2]; 0 time", "result": 0.01, "unit": "%"}, {"measurement": "Purity (HPLC) NLT 99.0%", "setting": "[2]; 0 time", "result": 99.9, "unit": "%"}, {"measurement": "Total impurities NMT 1.00%", "setting": "[2]; 0 time", "result": 0.08, "unit": "%"}, {"measurement": "Water content (KF), NMT 1.00%", "setting": "[2]; 0 time", "result": 0.17, "unit": "%"}, {"measurement": "AICA NMT 0.15%", "setting": "[2]; 1 month", "result": 0.24, "unit": "%"}, {"measurement": "Appearance (White to off-white powder)", "setting": "[2]; 1 month", "result": "Off-white"}, {"measurement": "Assay (HPLC) (98.0-102.0%)", "setting": "[2]; 1 month", "result": 101.7, "unit": "%"}, {"measurement": "Individual unknown impurity NMT 0.10%", "setting": "[2]; 1 month", "result": 0.01, "unit": "%"}, {"measurement": "Purity (HPLC) NLT 99.0%", "setting": "[2]; 1 month", "result": 99.8, "unit": "%"}, {"measurement": "Total impurities NMT 1.00%", "setting": "[2]; 1 month", "result": 0.25, "unit": "%"}, {"measurement": "Water content (KF), NMT 1.00%", "setting": "[2]; 1 month", "result": 0.25, "unit": "%"}, {"measurement": "AICA NMT 0.15%", "setting": "[2]; 2 months", "result": 0.64, "unit": "%"}, {"measurement": "Appearance (White to off-white powder)", "setting": "[2]; 2 months", "result": "Off-white"}, {"measurement": "Assay (HPLC) (98.0-102.0%)", "setting": "[2]; 2 months", "result": 99.4, "unit": "%"}, {"measurement": "Individual unknown impurity NMT 0.10%", "setting": "[2]; 2 months", "result": 0.01, "unit": "%"}, {"measurement": "Purity (HPLC) NLT 99.0%", "setting": "[2]; 2 months", "result": 99.3, "unit": "%"}, {"measurement": "Total impurities NMT 1.00%", "setting": "[2]; 2 months", "result": 0.67, "unit": "%"}, {"measurement": "Water content (KF), NMT 1.00%", "setting": "[2]; 2 months", "result": 0.24, "unit": "%"}, {"measurement": "Stability (in words)", "setting": "[2]; prepared by conventional method, temperature 25 degree ° C.", "result": "easily to degrade to out of specification"}, {"measurement": "Time stable", "setting": "[3]; prepared by the process of the present invention, temperature 2-8° C.", "result": "at least 18 months"}, {"measurement": "AICA NMT 0.15%", "setting": "[3]; [4]", "result": 0.01, "unit": "%"}, {"measurement": "Appearance (White to off-white powder)", "setting": "[3]; [4]", "result": "White"}, {"measurement": "Assay (HPLC) (98.0-102.0%)", "setting": "[3]; [4]", "result": 99.7, "unit": "%"}, {"measurement": "Purity (HPLC) NLT 99.0%", "setting": "[3]; [4]", "result": 100.0, "unit": "%"}, {"measurement": "Total impurities NMT 1.00%", "setting": "[3]; [4]", "result": 0.01, "unit": "%"}, {"measurement": "Water content (KF), NMT 1.00%", "setting": "[3]; [4]", "result": 0.09, "unit": "%"}, {"measurement": "AICA NMT 0.15%", "setting": "[3]; [5]", "result": 0.01, "unit": "%"}, {"measurement": "Appearance (White to off-white powder)", "setting": "[3]; [5]", "result": "White"}, {"measurement": "Assay (HPLC) (98.0-102.0%)", "setting": "[3]; [5]", "result": 98.6, "unit": "%"}, {"measurement": "Purity (HPLC) NLT 99.0%", "setting": "[3]; [5]", "result": 100.0, "unit": "%"}, {"measurement": "Total impurities NMT 1.00%", "setting": "[3]; [5]", "result": 0.01, "unit": "%"}]}
